Data taken from patent publication US20170260169A1, “INHIBITORS FOR STEROID RESPONSE ELEMENTS AND RNA POLYMERASE II AND RELATED METHODS” (priority 2007, published 2017).

Tests used:
[1] = system: transcripts in DHT-stimulated LNCaP cells; test: Gene expression with Affymetrix Human Genome U133 Plus 2.0 arrays, DHT-stimulated LNCaP cells; assay type: cell-based
Experimental: LNCaP cells were plated in 12-well plates at a density of 80-100×10^3 cells per well. Media, polyamide treatments, and time courses were the same as described above. Bicalutamide was added 2 h before DHT stimulation. RNA was isolated as described in ref. 21. From this point, experiments were carried out at the Millard and Muriel Jacobs Gene Expression Facility at the California Institute of Technology. Labeled mRNA was hybridized to Affymetrix high-density Human Genome U133 Plus 2.0 arrays according to established protocols. Gene expression was analyzed by using Resolver (Rosetta Biosoftware, Seattle, Wash.). Data were uploaded to the Gene Expression Omnibus repository (accession no. GSE7708).
Global effects of polyamides 1 and 2 and bicalutamide on gene expression in DHT-stimulated LNCaP cells were monitored with Affymetrix (Santa Clara, Calif.) high-density Human Genome U133 Plus 2.0 arrays, which interrogate >50,000 transcripts.

GILZ enhancer GRE2 = test: Quantitative DNase I footprint titration on pKAM5 fragment, GRE2; assay type: binding
Experimental: Detailed experimental protocols are reported elsewhere (44). The GILZ enhancer contains two GREs separated by 22 base pairs (46). GRE 1 is 5'-[NT]=3' (SEQ ID NO:5) and GRE 2 is […] ID NO:7). The DNA binding of polyamides 1 and 2 on these sequences was measured by quantitative DNase I footprint. […] […]).

[2] = system: GR occupancy at the GILZ enhancer; test: Chromatin immunoprecipitation with anti-GR, GILZ enhancer, A549 cells; assay type: cell-based
Experimental: A549 cells were plated in 15-cm diameter plates. Media, polyamide treatment, time course, and […] were the same as described above. After dexamethasone treatment, cells were treated with 1% formaldehyde for 10 min. Chromatin was isolated and sheared. Antibodies to GR (graciously gifted by Keith Yamamoto) were used to immunoprecipitate GR-bound DNA fragments. Crosslinks were reversed, and PCRs using primers targeted to the regions of interest were used to assess enrichment of bound fragments as compared with mock-precipitated (no antibody) controls. PCRs were monitored with SYBR Green PCR Master Mix (Applied Biosystems) on an ABI 7300 instrument. Primer sequences and a more detailed experimental protocol are available upon request.

RNAP2 large subunit RPB1 = test: Immunoblot of RPB1 protein in LNCaP cells; assay type: cell-based
Experimental: Samples for immunoblot analysis were prepared by plating LNCaP or DU145 cells at 1 million cells per 10 cm plate. Cells were allowed to adhere for 24-36 hr prior to incubation with compound. After the appropriate incubation time cells were washed once with ice cold PBS and harvested in ice cold 125 μL lysis buffer (50 mM Tris-HCl pH 7.4, 150 mM NaCl, 1 mM EDTA, 1% Triton X100) containing protease inhibitor cocktail (Roche), 1 mM PMSF (Sigma), and phosphatase inhibitors (Sigma). Samples were allowed incubate on ice for 10 min with vortexing once every 3 min. Cellular debris was pelleted by spinning at 14,000 rpm for 15 min to collect the supernatant. Samples were then quantified for protein content with the Bradford assay (Bio-rad) and boiled with 4× sample buffer (Li-Cor) for 5 min. Protein electrophoresis was performed in 4-20% precast Tris glycine SDS gels (Bio-rad) and transferred to PVDF membranes. Membrane blocking was done with Odyssey Blocking Buffer (Li-Cor). The following antibodies used to probe changes in protein levels or phosphorylation states: RBP1 (Santa Cruz Biotechnology, N20), p53 (Santa Cruz Biotechnology, DO1), phospho-Chk2-Thr68 (Cell Signaling Technology), Phospho-p53-Ser15 (Cell Signaling Technology), phosphor-H2A.X-Ser139 (Cell Signaling Technology), phosphor-ATM-Ser1981 (Abcam), phosphor-DNA-PKcs-Ser2056 (Abcam), and […] (Abcam). […]

LNCaP cells = test: Cell viability WST-1 assay; assay type: cell-based; details: LNCaP
Experimental: LNCaP cells were plated in clear bottom 96 well plates at 5,000-7,500 cells per well. The cells were allowed to adhere for 24-36 h before compounds were added in fresh media. Cell viability was determined by the WST-1 assay (Roche) for 77 and 85 after 24 h or 72 h incubation with cells. Cells in cytotoxicity rescue experiments were treated with 85 alone or with 3 μM for 24 h.
LNCaP cells were plated in clear bottom 96-well plates at 5,000-7,500 cells per well and allowed to adhere for 36-48 h. Compounds were then added in fresh media. Cell metabolic activity was determined by the WST-1 assay (Roche) after 72-h incubation with cells. Quantification was performed on a Perkin Elmer Victor 3 plate reader. Assays were performed in biological triplicates.

RPB1 = RPB1 protein ELISA in LNCaP cells; assay type: cell-based; details: polyamide 10 μM 72 hr; doxorubicin 1 μM 24 hr
Experimental: […] Cells treated with DMSO vehicle and 1 μM doxorubicin for 24 h were used as control. Cellular RBP1 levels were determined by a RPB1 specific ELISA kit (Cusabio Life Sciences) according to manufacturer's instructions. Total cellular p53 protein level was determined with a pan-p53 ELISA kit (Roche) according to manufacturer's instructions. Assays were performed in biological triplicates.

[3] = cited from earlier work
[4] = Liver microsomal stability, human; details: 1 μM, Human, 1 hr at 37° C., 1 mg/ml microsomes
[5] = Liver microsomal stability, mouse; details: 1 μM, Mouse, 1 hr at 37° C., 1 mg/ml microsomes
[6] = Escalating single dose subcutaneous injections, male C57BL/6J mice (weight, histopathology, serum)
Experimental: Representative mice (n=2 per dosing group unless otherwise noted) were subjected to histopathology analysis by a veterinary pathologist. Blood from all mice was sampled and sent for analysis of serum markers of target organs. […] These mice were euthanized when significant duress was apparent.
All animal experiments were conducted under an approved protocol at the California Institute of Technology. Animals were allowed to adjust for 3 days after arrival before treatment. […] Animals were monitored daily for weight loss over 9 days and sacrificed. […] Weight was recorded on days of injection and at the experiment endpoint.
Sacrificed animals from weight loss experiments were fixed in 10% formalin and sent for histopathology analysis by IDEXX-RADIL. Histopathologic analysis was performed on the cecum, duodenum, heart, ileum, kidney, liver, lung, pancreas, spleen, and stomach. Tissue analysis was performed as a blind study to the identity of the animals.
Serum from treated animals were collected by retroorbital bleeding. Blood samples were centrifuged at 6,000 rpm for 5 min to collect the serum. Serum ALT, AST, total bilirubin, BUN, and creatinine levels were sent for analysis by IDEXX-RADIL. Serum analysis was performed as a blind study to the identity of the animals.

[7] = 10 μM, + DHT, relative to DHT-induced controls, p ≦ 0.01
[8] = relative to DHT-induced controls, + DHT

For `CN(CCCNC(=O)c1cccc(C(=O)O)c1)CCCNC(=O)c1cc(NC(=O)c2cc(NC(=O)c3cc(NC(=O)c4nc(NC(=O)[C@H](N)CCNC(=O)c5cc(NC(=O)c6cc(NC(=O)c7cc(NC(=O)c8nccn8C)cn7C)cn6C)cn5C)cn4C)cn3C)cn2C)cn1C` [Polyamide 1, ImPyPyPy-2-(R)H^2Nγ-ImPyPyPy-NHMe-IPA], the “Number of transcripts down-regulated (fold change ≦ −2.0)” value [1, 7] was 706, the “Number of transcripts down-regulated (fold change ≦ −4.0)” value [1, 7] was 126 and the “Number of transcripts up-regulated (fold change ≧ 2.0)” value [1, 7] was 347. For the same molecule, the “Number of transcripts up-regulated (fold change ≧ 4.0)” value [1, 7] was 42, the “number of transcripts affected by at least 2-fold” value ([1]; 10 μM, P≦0.01, vs DHT-induced controls) was 1,053 and the “share of interrogated transcripts affected” value ([1]; 10 μM, at least 2-fold) was “less than 2%”. For the same molecule, the “share of transcripts induced at least 4-fold by DHT whose expression is inhibited” value ([1]; LNCaP cells) was “≈ 35%”, the “number of the 88 DHT-repressed transcripts derepressed at least 2-fold” value ([1]; P≦0.01) was “eight” and the “number of the 199 DHT-induced transcripts inhibited at least 2-fold” value ([1]; P≦0.01) was 70. For the same molecule, the “Fold-change of FKBP5” value [1, 8] was −3.1, the “Fold-change of KLK2” value [1, 8] was −2.4 and the “Fold-change of KLK3 (PSA)” value [1, 8] was −3.3. For the same molecule, the “Fold-change of TMPRSS2” value [1, 8] was −2.3, the Ka (GILZ enhancer GRE2) was 8.8±1.8×10^9 and the “occupancy of GR at the GILZ enhancer” value ([2]; 1 μM as printed) was “decreased occupancy”. The “GR occupancy at the GILZ enhancer” value ([2]; 10 μM, FIG. 17 legend) was “decreased”, the RPB1 protein level (RNAP2 large subunit RPB1) was “depletion of RPB1 in a time- and concentration-dependent manner” and the “cytotoxicity after 24 h treatment” value (LNCaP cells) was “minimal cytotoxicity is seen at 24 h”. The RPB1 protein (RPB1) was “decreases”, the “animal toxicity after single subcutaneous administration” value ([3]; female C57BL/6J mice, 77 at 2.5 and 5 mg/kg, 80 at 2.3 and […]) was “did not adversely affect the animals” and the weight loss ([3]; female mice, 10 mg/kg SC) was “greater than 15%”. For the same molecule, the doses without toxicity ([3]; mouse, in vivo) was “less than 10 mg/kg”, the “Mean remaining parent NADPH-free” value [4] was 92.3% and the “Mean remaining parent with NADPH” value [4] was 96.9%. The “Mean remaining parent NADPH-free” value [5] was 96.8%, the “Mean remaining parent with NADPH” value [5] was 95.2% and the “tolerability, behavior and morbidity after single SC dose” value ([6]; 1, 3, 10 mg/kg) was “no change in behavior and appearance”. For the same molecule, the “weight loss after single SC dose” value ([6]; 1, 3, 10 mg/kg, 9 days) was “significant weight loss only at 10 mg/kg”, the liver histopathology ([6]; single SC 3 mg/kg) was “Mild hepatocellular necrosis and apoptosis” and the kidney histopathology ([6]; single SC 10 mg/kg) was “Milder tubular regeneration and karyomegaly”. For the same molecule, the liver histopathology ([6]; single SC 10 mg/kg) was “Mild hepatocellular necrosis and apoptosis”, the “serum kidney markers creatinine and BUN” value ([6]; single SC dose) was “not observed for any dose level” and the “serum liver markers AST, ALT, total bilirubin” value ([6]; single SC dose) was “significant elevation of AST, ALT, and total bilirubin at 10 mg/kg, indicative of acute damage to liver cells, and moderate elevation of ALT at 3 mg/kg”.
